# From US20120202793A1, “RHO KINASE INHIBITORS” (priority 2009, published 2012)
# Assays:
# ROCK 2 = ROCK 2 (Homo sapiens, UniProt O75116); experiment: Inhibition of Rho kinase ROCK 2 (Tables 2.1-2.4); type: biochemical
# Description: (§1) Inhibitory activity for Rho kinase was determined for examples of compounds of the present invention. Inhibition of Rho kinase can be assayed as described. For each of these compounds their inhibitory activity for both ROCK1 and ROCK2 was determined.
# (§2) The IC50 values (in μM) for each of these compounds show a selectivity for inhibiting ROCK2.
# ROCK 1 = ROCK 1 (Homo sapiens, UniProt Q13464); experiment: Inhibition of Rho kinase ROCK 1 (Tables 2.1-2.4); type: biochemical
# Description: as §1, §2
# ROCK2 = experiment: Inhibition of phosphorylation of S6 Long Peptide by ROCK1 and ROCK2 (33P filter assay), selective inhibition of ROCK2; type: biochemical
# Description: Filtration was done in 96 well filter plates containing phosphocellulose cation exchange paper (Millipore, Cat#MAPHNOBIO).
# The reaction was incubated for 40 minutes at room temperature and stopped with 25 ul 3% phosphoric acid. Reaction was then transferred to a filter plate wet with 75 mM phosphoric acid. The plate was then washed three times with 75 mM phosphoric acid and once with methanol. […] IC50 values were determined using Graphpad Prism.
# [1] = Attenuation of weight gain, C57BL/6 mice consuming a high fat diet; type: in vivo
# Description: The ability of SLx-2119 to limit weight gain was evaluated by administration to C57BL/6, ApoE knockout, and leptin deficient mice as part of a high fat or low fat diet.
# Three groups of 10 mice each were initially fed a control diet for a week. Two groups were then switched to a high fat diet in which 42% of the calories were from fat. SLx-2119 was included in the diet of one of the two groups. The third group continued on the control diet. Fasting glucose levels were measured during the first week (all groups consuming the control diet), and again during the third and sixth week.
# [2] = Fasting insulin and glucose levels in ApoE (−/−) and C57BL/6 mice on high fat diet; type: in vivo
# Excerpt: (§3) In a different experiment, ApoE (−/−) deficient mice were compared with C57BL/6 mice. All mice were initially fed a control diet for one week, and a high fat diet for the following 11 weeks. At the start of the fourth week, half of the C57BL/6 mice and half of the ApoE (−/−) mice were supplemented with 0.1% SLx-2119 in the diet.
# The reductions in fasting insulin levels were accompanied by reductions in fasting blood glucose levels. (FIG. 18, bottom).
# [3] = Attenuation of hyperinsulinemia in Leptin deficient (ob−/ob−) mice; type: in vivo
# Excerpt: Leptin deficient (ob^−/ob^−) mice were maintained on a normal (control), or a high fat diet with or without SLx-2119. […] Attenuation of hyperinsulinemia was similarly observed in ob^−/ob^− mice maintained on a low fat diet (FIG. 26).
# [4] = Attenuation of weight gain in Leptin deficient (ob−/ob−) mice, low fat or high fat diet; type: in vivo
# Description: The effect of SLx-2119 on weight gain in Leptin deficient (ob^−/ob^−) mice fed a low fat (normal) or high fat diet was also measured. […] The leptin deficient mice gained considerably more weight than normal 057BL/6 mice fed the low fat diet.
# The leptin deficient mice consuming the high fat diet gained weigh at about four times the rate of normal mice on a low fat diet. […] As with the low fat diet, caloric intake was quite a bit higher in the ob^−/ob^− mice, whether or not they received SLx-2119. (FIG. 23).
# [5] = Glucose tolerance in C57BL/6 mice after 54 days on diet; type: in vivo; conditions: high fat diet with compound, meal after overnight fast, FIG. 14
# Excerpt: Separate groups of C57BL/6 mice were fed as above, and evaluated for glucose tolerance after 54 days. All mice were fed the same meal |what is the meal| after an overnight fast. […] (FIG. 14)
# [6] = Body weight of rats fed a low fat diet; type: in vivo
# Excerpt: The effect of SLx-2119 supplementation on body weight of rats fed a low fat diet was also investigated.
# [7] = Attenuation of weight gain in ApoE (−/−) and C57BL/6 mice on high fat diet; type: in vivo; conditions: 0.1% in the diet from the fourth week, FIG. 15
# Excerpt: as §3
# ROCK 2, sequence (O75116 whole entry, species assumed): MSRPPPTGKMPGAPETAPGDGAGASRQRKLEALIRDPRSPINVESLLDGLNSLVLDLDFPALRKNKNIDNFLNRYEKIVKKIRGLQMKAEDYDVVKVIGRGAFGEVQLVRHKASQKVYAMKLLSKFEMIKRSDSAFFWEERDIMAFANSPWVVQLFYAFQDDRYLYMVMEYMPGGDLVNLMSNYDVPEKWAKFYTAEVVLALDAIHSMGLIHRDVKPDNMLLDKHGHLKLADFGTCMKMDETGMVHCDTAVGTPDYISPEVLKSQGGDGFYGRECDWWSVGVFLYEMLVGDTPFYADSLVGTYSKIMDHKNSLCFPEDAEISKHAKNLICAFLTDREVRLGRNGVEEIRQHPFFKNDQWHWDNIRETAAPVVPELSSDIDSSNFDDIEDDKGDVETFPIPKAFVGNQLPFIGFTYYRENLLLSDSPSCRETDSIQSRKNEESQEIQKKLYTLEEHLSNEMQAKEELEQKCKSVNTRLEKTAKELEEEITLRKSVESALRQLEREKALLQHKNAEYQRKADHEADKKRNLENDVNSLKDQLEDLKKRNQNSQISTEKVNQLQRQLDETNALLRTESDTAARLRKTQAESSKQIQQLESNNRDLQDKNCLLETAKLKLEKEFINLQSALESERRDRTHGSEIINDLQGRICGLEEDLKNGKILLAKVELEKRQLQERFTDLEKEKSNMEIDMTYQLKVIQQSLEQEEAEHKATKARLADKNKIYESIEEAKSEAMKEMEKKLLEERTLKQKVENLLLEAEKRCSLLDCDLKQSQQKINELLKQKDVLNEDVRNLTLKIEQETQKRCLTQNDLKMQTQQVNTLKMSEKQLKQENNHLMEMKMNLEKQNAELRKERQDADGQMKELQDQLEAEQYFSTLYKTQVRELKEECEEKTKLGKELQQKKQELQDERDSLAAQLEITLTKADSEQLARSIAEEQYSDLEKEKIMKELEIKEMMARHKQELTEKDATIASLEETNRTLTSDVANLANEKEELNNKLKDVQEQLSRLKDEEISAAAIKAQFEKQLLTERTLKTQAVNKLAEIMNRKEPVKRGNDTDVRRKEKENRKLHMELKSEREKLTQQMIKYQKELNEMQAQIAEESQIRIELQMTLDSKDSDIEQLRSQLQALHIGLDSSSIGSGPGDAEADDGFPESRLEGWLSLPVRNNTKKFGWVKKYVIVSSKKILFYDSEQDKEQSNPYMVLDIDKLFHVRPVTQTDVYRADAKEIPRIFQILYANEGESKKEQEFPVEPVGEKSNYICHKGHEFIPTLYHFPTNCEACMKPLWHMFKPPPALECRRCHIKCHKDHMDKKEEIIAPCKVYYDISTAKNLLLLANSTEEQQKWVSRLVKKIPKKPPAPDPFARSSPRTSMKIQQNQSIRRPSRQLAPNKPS
# ROCK 1, sequence (Q13464 whole entry, species assumed): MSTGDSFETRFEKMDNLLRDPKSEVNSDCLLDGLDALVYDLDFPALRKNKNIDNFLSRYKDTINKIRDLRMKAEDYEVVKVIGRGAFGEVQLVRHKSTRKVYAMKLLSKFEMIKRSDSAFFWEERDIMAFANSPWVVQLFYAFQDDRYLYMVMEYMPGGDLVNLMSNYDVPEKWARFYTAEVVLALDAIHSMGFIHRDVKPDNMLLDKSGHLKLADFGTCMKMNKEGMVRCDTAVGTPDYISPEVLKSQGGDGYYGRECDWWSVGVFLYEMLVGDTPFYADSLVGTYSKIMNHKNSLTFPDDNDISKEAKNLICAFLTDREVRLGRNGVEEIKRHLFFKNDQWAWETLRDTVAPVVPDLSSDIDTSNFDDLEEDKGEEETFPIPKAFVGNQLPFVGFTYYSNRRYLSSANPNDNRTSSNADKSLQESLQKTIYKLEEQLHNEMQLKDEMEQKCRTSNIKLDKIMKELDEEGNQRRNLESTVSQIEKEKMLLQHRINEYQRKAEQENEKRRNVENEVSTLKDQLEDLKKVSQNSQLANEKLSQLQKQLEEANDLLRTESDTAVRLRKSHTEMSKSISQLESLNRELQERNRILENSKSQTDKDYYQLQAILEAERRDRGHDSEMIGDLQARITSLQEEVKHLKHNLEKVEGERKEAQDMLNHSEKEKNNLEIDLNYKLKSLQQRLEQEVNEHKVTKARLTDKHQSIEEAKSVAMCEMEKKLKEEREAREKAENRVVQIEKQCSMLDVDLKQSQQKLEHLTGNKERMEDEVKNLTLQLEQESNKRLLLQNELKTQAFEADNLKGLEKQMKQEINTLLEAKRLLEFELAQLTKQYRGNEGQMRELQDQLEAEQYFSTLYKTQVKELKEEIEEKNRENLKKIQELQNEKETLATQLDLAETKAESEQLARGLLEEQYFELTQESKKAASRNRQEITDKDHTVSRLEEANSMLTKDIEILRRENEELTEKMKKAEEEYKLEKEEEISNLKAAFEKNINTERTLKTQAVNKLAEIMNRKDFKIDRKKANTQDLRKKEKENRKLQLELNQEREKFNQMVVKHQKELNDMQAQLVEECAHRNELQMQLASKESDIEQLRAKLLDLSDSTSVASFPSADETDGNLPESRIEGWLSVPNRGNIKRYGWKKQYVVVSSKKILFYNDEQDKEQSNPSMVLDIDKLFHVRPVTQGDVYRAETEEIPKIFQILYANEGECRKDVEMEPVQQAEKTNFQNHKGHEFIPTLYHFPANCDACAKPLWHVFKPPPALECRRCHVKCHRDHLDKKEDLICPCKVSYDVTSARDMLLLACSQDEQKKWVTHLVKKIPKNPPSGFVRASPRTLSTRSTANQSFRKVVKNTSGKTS
compound,measurement,setting,value
"COCCNC(=O)COc1cccc(-c2nc(Nc3ccc4[nH]ncc4c3)c3ccccc3n2)c1 [Example 54, 2-(3-(4-(1H-indazol-5-ylamino)quinazolin-2-yl)phenoxy)-N-(2-methoxyethyl)acetamide]",IC50,ROCK 2,150 nM
same,IC50,ROCK 1,> 10000 nM
"O=C(COc1cccc(-c2nc(Nc3ccc4[nH]ncc4c3)c3ccccc3n2)c1)Nc1cccnc1 [Example 55, 2-(3-(4-(1H-indazol-5-ylamino)quinazolin-2-yl)phenoxy)-N-(pyridin-3-yl)acetamide]",IC50,ROCK 2,90 nM
same,IC50,ROCK 1,> 10000 nM
"NC(=O)COc1cccc(-c2nc(Nc3ccc4[nH]ncc4c3)c3ccccc3n2)c1 [Example 84, 2-(3-(4-(1H-indazol-5-ylamino)quinazolin-2-yl)phenoxy)acetamide]",IC50,ROCK 2,520 nM
same,IC50,ROCK 1,2600 nM
"CCCC(=O)Nc1cccc(-c2nc(Nc3ccc4[nH]ncc4c3)c3cc(OCCN(C)C)ccc3n2)c1 [Example 141, N-(3-(4-(1H-indazol-5-ylamino)-6-(2-(dimethylamino)ethoxy)quinazolin-2-yl)phenyl)butyramide]",IC50,ROCK 2,40 nM
same,IC50,ROCK 1,> 1000 nM
"CCCC(=O)Nc1cccc(-c2nc(Nc3ccc4[nH]ncc4c3)c3cc(OCCCN4CCOCC4)c(OC)cc3n2)c1 [Example 160, N-(3-(4-(1H-indazol-5-ylamino)-7-methoxy-6-(3-morpholinopropoxy)quinazolin-2-yl)phenyl)butyramide]",IC50,ROCK 2,50 nM
same,IC50,ROCK 1,> 3000 nM
"COc1cc2nc(-c3cccc(NC(=O)CN4CCOCC4)c3)nc(Nc3ccc4[nH]ncc4c3)c2cc1OCCN1CCCC1 [Example 167, N-(3-(4-(1H-Indazol-5-ylamino)-7-methoxy-6-(2-(pyrrolidin-1-yl)ethoxy)quinazolin-2-yl)phenyl)-2-morpholinoacetamide]",IC50,ROCK 2,60 nM
same,IC50,ROCK 1,> 3000 nM
CCCC(=O)Nc1cccc(-c2nc(Nc3ccc4[nH]ncc4c3)c3ccc(OCCOC)cc3n2)c1 [Example 263],IC50,ROCK 2,90 nM
same,IC50,ROCK 1,> 3000 nM
CC(=O)Oc1cccc(-c2nc(Nc3ccc4[nH]ncc4c3)c3ccccc3n2)c1 [Example 272],IC50,ROCK 2,570 nM
same,IC50,ROCK 1,> 10000 nM
C[C@@H](N)[C@H]1CC[C@H](C(=O)Nc2ccncc2)CC1 [Example Y-27632],inhibition of ROCK2 compared with ROCK1,ROCK2,to the same extent
CC(C)NC(=O)COc1cccc(-c2nc(Nc3ccc4[nH]ncc4c3)c3ccccc3n2)c1 [SLx-2119],weight gain,"[1]; high fat diet (42% of calories from fat) supplemented with compound, versus control diet mice, FIG. 11",not distinguishable from the control mice
same,average caloric intake of untreated high fat diet mice relative to control and treated groups,"[1]; high fat diet, FIG. 12",only slightly higher
same,fasting blood glucose levels,"[2]; C57BL/6 and ApoE (−/−) mice, FIG. 18 bottom",reductions
same,fasting insulin levels,"[2]; normal C57BL/6 mice, FIG. 18 top",reduction
same,fasting blood glucose levels,"[3]; high fat diet, FIG. 25",reduced to normal levels
same,fasting insulin levels,"[3]; high fat diet, FIG. 25",significantly reduced
same,hyperinsulinemia,"[3]; low fat diet, FIG. 26",Attenuation
same,weight gain,"[4]; normal C57BL/6 mice, low fat diet, FIG. 19",no distinguishable effect
same,weight gain,"[4]; ob−/ob− mice, high fat diet, FIG. 22",reduced by half
same,weight gain,"[4]; ob−/ob− mice, low fat diet, versus ob−/ob− mice without compound, FIG. 19",gained only half as much weight
same,glucose levels following feeding,[5],"increased relative to mice maintained on the control diet, but not as high as in mice that did not receive SLx-2119"
same,recovery of glucose levels,[5],quickly recovered to a normal level
same,reduction of body weight gain,[6]; FIG. 27,about 6%
same,caloric intake,[6]; FIG. 28,little or no change
same,weight gain less than in mice that did not receive the supplement,[7]; ApoE (−/−) mice,50%
same,weight gain less than in mice that did not receive the supplement,[7]; C57BL/6 mice,33%
